{
  "source": "patent US20250332139A1",
  "about": "“PS[…] AND THEIR USE FOR TREATING […] AND NE[…] DISORDERS” (Transcend Therapeutics, Inc., priority 2021, published 2025)",
  "key": {"[1]": {"system": "myelin basic protein (MBP) in the amygdala", "assay": "Immunohistochemistry of myelin basic protein", "format": "in vivo, rat", "settings": "10 mg/kg IP, single dose, 24 h", "protocol": "Immunohistochemistry: The in-life portion of the study was conducted at WuXi Apptec (Cranbury, NJ). Sectioning and staining of brains took place at Neuroscience Associates (NSA, Knoxville, TN). […] Brains were post-fixed in PFA before shipment to NSA for processing and staining. Hemisected brains were mounted, sectioned and stained using standard protocols with myelin-basic protein primary antibody (MBP SMI-99, 1:5000, Biolegend, San Diego, CA) and anti-mouse biotinylated secondary antibody (BA-2001, Vector Laboratories, Newark, CA). Slides were imaged using a Huron Digital Pathology TissueScope LE120 whole slide scanning system. 20× objective was used with a 0.4 μm/pixel resolution."}, "168 GPCRs [2]": {"target": "T1, 168 GPCRs (Homo sapiens, UniProt P30411)", "T1 construct": "host or cells: PathHunter cell lines", "T1 sequence (P30411 whole entry)": "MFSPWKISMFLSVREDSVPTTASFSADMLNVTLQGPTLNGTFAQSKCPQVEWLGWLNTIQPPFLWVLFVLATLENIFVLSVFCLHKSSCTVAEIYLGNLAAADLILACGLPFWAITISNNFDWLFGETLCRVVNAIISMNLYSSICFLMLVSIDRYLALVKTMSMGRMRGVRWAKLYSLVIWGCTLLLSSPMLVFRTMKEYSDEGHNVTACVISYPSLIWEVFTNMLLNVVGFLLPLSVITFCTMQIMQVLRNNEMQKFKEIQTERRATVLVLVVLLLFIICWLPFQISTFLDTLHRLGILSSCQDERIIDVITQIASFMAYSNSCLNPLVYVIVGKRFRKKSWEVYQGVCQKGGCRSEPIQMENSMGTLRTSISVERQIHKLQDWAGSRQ", "assay": "β-arrestin GPCR screen (PathHunter/GPCRmax), agonist mode", "format": "cell-based", "settings": "BDKRB2; Agonist; 10 uM", "protocol": "(§1) For agonist determination, cells were incubated with sample to induce response. […] Vehicle concentration was 1%."}, "168 GPCRs [3]": {"target": "T2, 168 GPCRs (Homo sapiens, UniProt P33032)", "T2 construct": "host or cells: PathHunter cell lines", "T2 sequence (P33032 whole entry)": "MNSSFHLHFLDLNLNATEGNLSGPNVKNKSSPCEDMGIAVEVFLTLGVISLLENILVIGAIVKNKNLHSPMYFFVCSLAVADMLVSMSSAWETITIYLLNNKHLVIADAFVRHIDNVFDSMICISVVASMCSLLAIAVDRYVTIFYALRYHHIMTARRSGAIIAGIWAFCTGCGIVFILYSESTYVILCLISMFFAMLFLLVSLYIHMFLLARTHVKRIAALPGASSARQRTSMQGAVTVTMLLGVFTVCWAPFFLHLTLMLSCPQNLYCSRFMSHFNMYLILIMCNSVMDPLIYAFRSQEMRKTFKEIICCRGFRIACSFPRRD", "assay": "β-arrestin GPCR screen (PathHunter/GPCRmax), agonist mode", "format": "cell-based", "protocol": "as §1"}, "[4]": {"system": "patients with PTSD or MDD; healthy subjects", "assay": "Methylone case series (outpatient, CGI-S/CGI-I)", "format": "in vivo, human", "protocol": "CGI-S scale was also evaluated in a subset of patients from Cohort 2 post-treatment. Cohort 2 was evaluated for any observed or reported safety events following a single dosing session.\nClinical Global Impressions (CGI) scale includes 2 components: CGI-S(“severity”) and CGI-I (“improvement”).\nNo protected health information was disclosed, and no consent was obtained from patients for use of their archival data. Case narratives were systematically compiled from data collected as part of routine clinical work. Diagnoses were confirmed by an experienced clinician using semi-structured interviews. Baseline symptom severity was evaluated using the Clinical Global Impressions Scale-Severity (CGI-S). Symptom improvement was evaluated using the Clinical Global Impressions Scale-Improvement (CGI-I) following dosing. […] Because these case narratives were examined retrospectively from routine clinical care records, and not gathered prospectively in a research study, more specific validated rating scales for assessing PTSD symptoms were not available. Additionally, follow-up varied, with the length of follow-up ranging from one week (Case 2) to 15 years (Case 16)."}, "rats": {"system": "rats", "assay": "Reserpine-induced fibromyalgia model, von Frey test", "format": "in vivo, rat", "settings": "methylone 15 mg/kg IP 30 min before vonFrey test, day 4"}, "[5]": {"settings": "cited from earlier work"}, "168 GPCRs [6]": {"target": "168 GPCRs (Homo sapiens, UniProt O95838)", "sequence (O95838 whole entry)": "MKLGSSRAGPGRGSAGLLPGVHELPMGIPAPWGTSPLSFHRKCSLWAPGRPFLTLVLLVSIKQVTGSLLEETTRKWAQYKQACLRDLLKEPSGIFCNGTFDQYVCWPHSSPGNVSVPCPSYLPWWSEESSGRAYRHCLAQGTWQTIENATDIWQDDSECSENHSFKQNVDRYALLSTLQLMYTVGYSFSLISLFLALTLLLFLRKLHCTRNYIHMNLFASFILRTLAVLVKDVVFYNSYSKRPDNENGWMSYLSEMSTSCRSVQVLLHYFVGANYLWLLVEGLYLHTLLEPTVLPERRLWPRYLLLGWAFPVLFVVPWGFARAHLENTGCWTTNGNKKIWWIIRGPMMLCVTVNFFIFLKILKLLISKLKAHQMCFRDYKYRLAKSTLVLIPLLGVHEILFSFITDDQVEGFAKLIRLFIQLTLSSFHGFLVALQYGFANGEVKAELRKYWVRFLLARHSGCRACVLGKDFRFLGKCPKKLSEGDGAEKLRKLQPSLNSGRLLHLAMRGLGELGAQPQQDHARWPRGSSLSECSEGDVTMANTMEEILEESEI", "assay": "β-arrestin GPCR screen (PathHunter/GPCRmax), agonist mode", "format": "cell-based", "design": "host or cells: PathHunter cell lines", "settings": "GPCR GLP2R; Agonist mode; 10 uM", "protocol": "as §1"}, "168 GPCRs [7]": {"target": "168 GPCRs (Homo sapiens, UniProt Q8NFJ6)", "sequence (Q8NFJ6 whole entry)": "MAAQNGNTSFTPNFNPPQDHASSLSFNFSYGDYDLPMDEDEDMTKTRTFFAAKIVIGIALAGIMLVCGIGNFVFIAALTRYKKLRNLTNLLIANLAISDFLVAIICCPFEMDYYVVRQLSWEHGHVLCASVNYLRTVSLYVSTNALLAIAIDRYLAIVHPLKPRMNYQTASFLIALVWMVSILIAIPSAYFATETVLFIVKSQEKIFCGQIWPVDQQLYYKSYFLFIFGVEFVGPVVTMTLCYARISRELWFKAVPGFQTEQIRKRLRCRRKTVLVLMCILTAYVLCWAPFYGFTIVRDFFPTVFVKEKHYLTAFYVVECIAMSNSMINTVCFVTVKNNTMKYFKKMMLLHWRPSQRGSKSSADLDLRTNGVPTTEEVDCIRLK", "assay": "β-arrestin GPCR screen (PathHunter/GPCRmax), agonist mode", "format": "cell-based", "design": "host or cells: PathHunter cell lines", "settings": "PROKR2; Agonist; 1 uM", "protocol": "as §1"}, "168 GPCRs [8]": {"target": "168 GPCRs (Homo sapiens, UniProt P32249)", "sequence (P32249 whole entry)": "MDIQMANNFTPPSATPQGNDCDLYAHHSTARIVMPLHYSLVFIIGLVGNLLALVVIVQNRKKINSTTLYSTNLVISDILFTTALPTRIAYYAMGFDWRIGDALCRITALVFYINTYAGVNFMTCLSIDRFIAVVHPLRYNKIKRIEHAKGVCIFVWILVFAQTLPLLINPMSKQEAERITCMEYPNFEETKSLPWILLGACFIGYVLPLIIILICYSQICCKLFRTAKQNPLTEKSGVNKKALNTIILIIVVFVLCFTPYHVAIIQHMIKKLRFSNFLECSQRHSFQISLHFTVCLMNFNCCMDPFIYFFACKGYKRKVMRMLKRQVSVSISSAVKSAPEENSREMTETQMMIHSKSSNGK", "assay": "β-arrestin GPCR screen (PathHunter/GPCRmax), agonist mode", "format": "cell-based", "design": "host or cells: PathHunter cell lines", "settings": "GPCR EBI2; Agonist mode; 10 uM", "protocol": "as §1"}, "168 GPCRs [9]": {"target": "168 GPCRs (Homo sapiens, UniProt Q969F8)", "sequence (Q969F8 whole entry)": "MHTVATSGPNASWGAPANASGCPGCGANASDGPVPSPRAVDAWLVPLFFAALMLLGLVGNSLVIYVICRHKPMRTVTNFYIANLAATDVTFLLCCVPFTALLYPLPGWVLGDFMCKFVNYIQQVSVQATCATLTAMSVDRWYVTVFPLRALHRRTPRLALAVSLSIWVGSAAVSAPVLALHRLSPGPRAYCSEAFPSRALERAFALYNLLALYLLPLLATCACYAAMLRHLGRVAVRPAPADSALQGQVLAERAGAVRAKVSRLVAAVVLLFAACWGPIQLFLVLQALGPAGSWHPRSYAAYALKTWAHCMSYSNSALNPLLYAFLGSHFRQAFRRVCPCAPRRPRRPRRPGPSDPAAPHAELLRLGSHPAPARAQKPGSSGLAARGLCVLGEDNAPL", "assay": "β-arrestin GPCR screen (PathHunter/GPCRmax), agonist mode", "format": "cell-based", "design": "host or cells: PathHunter cell lines", "settings": "KISS1R; Agonist; 1 uM", "protocol": "as §1"}},
  "note": "Several values for one entry are separate records, joined by “and”; a condition that tells them apart may be missing. Equal values may be shown once. Read-outs that look alike come from different tables or passages of the source. Marks after values point to notes of the source that are not given here.",
  "data": [
    {"smiles": "CNC(C)C(=O)c1ccc2c(c1)OCO2", "note": "(centres unmarked) [methylone, 3,4-methylenedioxy-N-methylcathinone]", "values": [
      {"measurement": "MBP level in basolateral and central nuclei of the amygdala vs vehicle", "setting": "[1]", "value": "significant reduction in MBP"},
      {"measurement": "activity at 10 µM", "setting": "168 GPCRs [2]", "value": -2.9, "unit": "%"},
      {"measurement": "activity at 10 µM", "setting": "168 GPCRs [3]; GPCR MC5R, Agonist mode, 10 uM", "value": -8.9, "unit": "%"},
      {"measurement": "activity at 1 µM", "setting": "168 GPCRs [3]; MC5R, Agonist, 1 uM", "value": "~-7", "unit": "%"},
      {"measurement": "adverse effects", "setting": "[4]; Cohort 1, 4 healthy subjects, total dose 790-870 mg in one session", "value": "no adverse effects or after-effects were observed or reported"},
      {"measurement": "patients with initial improvement at first methylone session", "setting": "[4]; Cohort 2 (25 of 28 patients)", "value": "~90", "unit": "%"},
      {"measurement": "Number of cases with highest observed CGI-I 1", "setting": "[4]; Cohort 2, N = 28", "value": "11*"},
      {"measurement": "Number of cases with highest observed CGI-I 2", "setting": "[4]; Cohort 2, N = 28", "value": 13},
      {"measurement": "Number of cases with highest observed CGI-I 3", "setting": "[4]; Cohort 2, N = 28", "value": 4},
      {"measurement": "Number of cases with highest observed CGI-I 4", "setting": "[4]; Cohort 2, N = 28", "value": 0},
      {"measurement": "Number of cases with highest observed CGI-I 5", "setting": "[4]; Cohort 2, N = 28", "value": 0},
      {"measurement": "Number of cases with highest observed CGI-I 6", "setting": "[4]; Cohort 2, N = 28", "value": 0},
      {"measurement": "Number of cases with highest observed CGI-I 7", "setting": "[4]; Cohort 2, N = 28", "value": 0},
      {"measurement": "number of patients achieving a CGI-I of 1 or 2", "setting": "[4]; Example 5, 21 PTSD patients", "value": 17, "unit": "patients"},
      {"measurement": "tolerability", "setting": "[4]; Example 5, 21 PTSD patients, oral 100 to 1,020 mg", "value": "generally well tolerated"},
      {"measurement": "Best CGI-S post-treatment", "setting": "[4]; individual cases, Cohort 2", "value": "1 and 4 and 2 and 3"},
      {"measurement": "CGI-S max change from BL", "setting": "[4]; individual cases, Cohort 2", "value": "−3 (4×) and −4"},
      {"measurement": "paw withdrawal thresholds", "setting": "rats", "value": "significantly increased paw withdrawal thresholds"},
      {"measurement": "AUC24 hr, Mean", "setting": "[5]; 50 mg oral, N = 3", "value": "(989, 4.5%) hr*μg/L"},
      {"measurement": "AUCinf, Mean", "setting": "[5]; 50 mg oral, N = 3", "value": "(1063, 6.9%) hr*μg/L"},
      {"measurement": "Cmax, Mean", "setting": "[5]; 50 mg oral, N = 3", "value": "(153.0, 18.9%) μg/L"},
      {"measurement": "Half-life, Mean", "setting": "[5]; 50 mg oral, N = 3", "value": "(6.3, 15%) hr"},
      {"measurement": "AUC10 hr, Mean", "setting": "[5]; 100 mg oral, N = 6", "value": "(1586, 23.1%) hr*μg/L"},
      {"measurement": "AUC24 hr, Mean", "setting": "[5]; 100 mg oral, N = 6", "value": "(2268, 20.4%) hr*μg/L"},
      {"measurement": "AUCinf, Mean", "setting": "[5]; 100 mg oral, N = 6", "value": "(2444, 18.3%) hr*μg/L"},
      {"measurement": "Cmax, Mean", "setting": "[5]; 100 mg oral, N = 6", "value": "(303.6, 45%) μg/L"},
      {"measurement": "Half-life, Mean", "setting": "[5]; 100 mg oral, N = 6", "value": "(6.1, 23.3%) hr"},
      {"measurement": "Tmax, Min-Max", "setting": "[5]; 100 mg oral, N = 6", "value": "(0.75-3) hr"},
      {"measurement": "AUC10 hr, Mean", "setting": "[5]; 150 mg oral, N = 5", "value": "(2236, 29.0%) hr*μg/L"},
      {"measurement": "AUC24 hr, Mean", "setting": "[5]; 150 mg oral, N = 5", "value": "(3349, 36.5%) hr*μg/L"},
      {"measurement": "AUCinf, Mean", "setting": "[5]; 150 mg oral, N = 5", "value": "(3777, 42.2%) hr*μg/L"},
      {"measurement": "Cmax, Mean", "setting": "[5]; 150 mg oral, N = 5", "value": "(354.6, 30.7%) μg/L"},
      {"measurement": "Half-life, Mean", "setting": "[5]; 150 mg oral, N = 5", "value": "(6.8, 23.3%) hr"},
      {"measurement": "Tmax, Min-Max", "setting": "[5]; 150 mg oral, N = 5", "value": "(1.5-4) hr"},
      {"measurement": "AUC10 hr, Mean", "setting": "[5]; 200 mg oral, N = 7", "value": "(3310, 17.9%) hr*μg/L"},
      {"measurement": "AUC24 hr, Mean", "setting": "[5]; 200 mg oral, N = 7", "value": "(4796, 23.2%) hr*μg/L"},
      {"measurement": "AUCinf, Mean", "setting": "[5]; 200 mg oral, N = 7", "value": "(5267, 25.1%) hr*μg/L"},
      {"measurement": "Cmax, Mean", "setting": "[5]; 200 mg oral, N = 7", "value": "(603.6, 20.6%) μg/L"},
      {"measurement": "Half-life, Mean", "setting": "[5]; 200 mg oral, N = 7", "value": "(6.6, 15.1%) hr"},
      {"measurement": "Tmax, Min-Max", "setting": "[5]; 200 mg oral, N = 7", "value": "(1-4) hr"},
      {"measurement": "activity at 10 µM", "setting": "168 GPCRs [6]", "value": -1, "unit": "%"},
      {"measurement": "activity at 1 µM", "setting": "168 GPCRs [7]", "value": "~0", "unit": "%"},
      {"measurement": "activity at 10 µM", "setting": "168 GPCRs [8]", "value": -0.1, "unit": "%"},
      {"measurement": "activity at 1 µM", "setting": "168 GPCRs [9]", "value": "~-5", "unit": "%"}
    ]}
  ]
}
